Test results: US12152035B2, “Androgen receptor binding molecule and use thereof” (Industrial Technology Research Institute, priority 2020, dated 2024)

Experiments:
CWR22RV1 cells = experiment: Cytotoxicity assay (AlamarBlue, 72 hours); format: cell-based; conditions: 72 hours treatment, concentration not given
Method in brief: (§1)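 CWR22Rv1 or VCaP cells in RPMI-1640 with 10% FBS were seeded at 1×10^4 cells/well. Next day they were treated with compound, test samples at 100, 10, 1 and 0.1 μM, giving 1% DMSO final. After 72 h, AlamarBlue was added for 4 h, fluorescence was read at Ex/Em 560/590 nm, and % cytotoxicity was calculated.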

VCaP cells = experiment: Cytotoxicity assay (AlamarBlue, 72 hours); format: cell-based; conditions: 72 hours treatment, concentration not given
Method in brief: as §1

[1] = test system: full-length androgen receptor; experiment: Western blot: degradation of full-length androgen receptor in CWR22RV1 cells; format: cell-based; conditions: overnight
Method in brief: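 CWR22Rv1 cells (5×10^5 per well) seeded overnight in RPMI with 10% FBS at 37 °C, 5% CO2, then given fresh medium and compound at various concentrations overnight. Lysates analysed by Western blot for full-length AR and AR-V7, with GAPDH as loading control.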

[2] = test system: CWR22Rv1 cells or VCaP cells; experiment: Xenograft tumor growth in SCID mice; format: in vivo, Male SCID mice; conditions: 5 or 30 mg/kg, IP, BID
Protocol: Mice: Male SCID mice (CB17/Icr-Prkdcscid/IcrIcoCrlBltw, 4-6 weeks old, purchased from BioLASCO Taiwan Co., Ilan, Taiwan.)
The cells were harvested when CWR22Rv1 cells or VCaP cells were cultured to exponential growth phase, and then the cells were washed twice with PBS. Then, for CWR22Rv1 cells, 5×10^6 cells were suspended in 100 μL PBS containing 33% Matrigel to form a cell suspension; for VCaP cells, 3×10^6 cells were suspended in 100 μL PBS containing 50% Matrigel to form a cell suspension cell suspension. Then, the above cell suspension was subcutaneously implanted into the right back of male SCID mice with a 25G needle.
After cell inoculation, when the average tumor volume reached […] or the tumor clearly began to grow, the mice were divided into a vehicle-treated group (n=4-8), 5 mg/kg Compound 1 treated group (n=4-8) and 30 mg/kg Compound 1 treatment group (n=4-8), and administered by intraperitoneal injection (IP), twice daily (BID). The vehicle was 10% N-methylpyrrolidone (NMP, N-Methyl-2-pyrrolidone) and 20% castor oil polyoxyethylene ether (Cremophor EL) in PBS buffer solution. Tumor volume and animal body weight were determined three times a week after dosing.
Tumor size was measured with a caliper and converted to tumor volume (cm^3; V) using the formula: V=0.5×[Length×(Width)^2]
Antitumor activity was expressed as tumor growth inhibition (TGI). […]

[3] = compound concentration 0.1 (unit not given)
[4] = compound concentration 1 (unit not given)
[5] = compound concentration 10 (unit not given)

Compound | Cytotoxicity, CWR22RV1 cells (cell viability %) (CWR22RV1 cells) | Cytotoxicity, VCaP cells (cell viability %) (VCaP cells) | Degradation ability for full-length androgen receptor (residual rate %) [1, 3] | Degradation ability for full-length androgen receptor (residual rate %) [1, 4] | Degradation ability for full-length androgen receptor (residual rate %) [1, 5] | Increase in tumor size compared to vehicle treatment [2]
O=C1CCC(N2Cc3cc(C#CCOCCCCOc4ccc(C5CCN(C6=Nn7c(nnc7C(F)(F)F)CC6)CC5)cc4)ccc3C2=O)C(=O)N1 (stereo not shown) [Compound 42] | + (60-80% : +) | + (60-80% : +) | − (>80%; −) | − (>80%; −) | + (60-80%: +) | 
Cc1ncsc1-c1ccc(CNC(=O)[C@@H]2C[C@H](O)CN2C(=O)[C@@H](NC(=O)COCCCCOc2ccc(C3CCN(C4=Nn5c(nnc5C(F)(F)F)CC4)CC3)cc2)C(C)(C)C)cc1 [Compound 1, (2S,4S)-1-((S)-3,3-dimethyl-2-(2-(4-(4-(1-(3-(trifluoromethyl)-7,8-dihydro-[1,2,4]triazolo[4,3-b]pyridazin-6-yl)piperidin-4-yl)phenoxy)butoxy)acetamido)butanoyl)-4-hydroxy-N-(4-(4-methylthiazol-5-yl)benzyl)pyrrolidine-2-carboxamide] | +++ (<40% : +++) | +++ (<40% : +++) | + (60-80%: +) | + (60-80%: +) | +++ (<40%: +++) | tends to slow down
Cc1ncsc1-c1ccc(CNC(=O)[C@H]2C[C@@H](O)CN2C(=O)[C@@H](NC(=O)C2(F)CC2)C(C)(C)C)c(OCCCCCCCOc2ccc(C3CCN(C4=Nn5c(nnc5C(F)(F)F)CC4)CC3)cc2)c1 [Compound 36, (2R,4R)-1-((S)-2-(1-fluorocyclopropane-1-carboxamido)-3,3-dimethylbutanoyl)-4-hydroxy-N-(4-(4-methylthiazol-5-yl)-2-((7-(4-(1-(3-(trifluoromethyl)-7,8-dihydro-[1,2,4]triazolo[4,3-b]pyridazin-6-yl)piperidin-4-yl)phenoxy)heptyl)oxy)benzyl)pyrrolidine-2-carboxamide] | +++ (<40% : +++) | +++ (<40% : +++) | − (>80%; −) | + (60-80%: +) | + (60-80%: +) | 
